This is an account of results in US11578072B2, “Spiro-lactam NMDA receptor modulators and uses thereof” (Aptinyx Inc., priority 2018, dated 2023).

For one experiment, the system named is Sprague Dawley rats. The experiment can be described thus: Porsolt forced swim test. The format is in vivo. The procedure:
A non-clinical in vivo pharmacology study (Porsolt assay) was performed to measure antidepressant-like effects. The study allowed for the evaluation of the effects of each compound on the Porsolt forced swim test as assessed by the rats' response (reduced floating time) during a 5-minute swimming test.
Male 2-3 month old Sprague Dawley rats were used (Harlan, Indianapolis, Ind.). Rats were housed in Lucite cages with aspen wood chip bedding, maintained on a 12:12 light:dark cycle (lights on at 5 AM), and given ad libitum access to Purina lab chow (USA) and tap water throughout the study.
The Porsolt forced swim test adapted for use in rats was performed as described by Burgdorf et al., (The long-lasting antidepressant effects of rapastinel (GLYX-13) are associated with a metaplasticity process in the medial prefrontal cortex and hippocampus. Neuroscience 308:202-211, 2015). Animals were placed in a 46 cm tall×20 cm in diameter clear glass tube filled to 30 cm with tap water (23±1° C.) for 15 min on the first day (habituation) and 5 min on the subsequent test day. Animals were tested 1 h or 1 week post-dosing with the test compounds or vehicle control (0.5% sodium carboxymethyl cellulose in 0.9% sterile saline). Animals received a 15 min habituation session 1 day before the first 5 min test. Water was changed after every other animal. Animals were videotaped, and floating time as defined as the minimal amount of effort required to keep the animals head above water was scored offline by a blinded experimenter with high inter-rater reliability (Pearson's r>0.9).

For a further experiment, the target named is T1, NMDAR2A (Homo sapiens, UniProt Q12879).
T1 construct: expressed in transfected cells; host or cells: HEK cells (membrane extract)
T1 sequence (Q12879 23-1464, species assumed, other chains not shown): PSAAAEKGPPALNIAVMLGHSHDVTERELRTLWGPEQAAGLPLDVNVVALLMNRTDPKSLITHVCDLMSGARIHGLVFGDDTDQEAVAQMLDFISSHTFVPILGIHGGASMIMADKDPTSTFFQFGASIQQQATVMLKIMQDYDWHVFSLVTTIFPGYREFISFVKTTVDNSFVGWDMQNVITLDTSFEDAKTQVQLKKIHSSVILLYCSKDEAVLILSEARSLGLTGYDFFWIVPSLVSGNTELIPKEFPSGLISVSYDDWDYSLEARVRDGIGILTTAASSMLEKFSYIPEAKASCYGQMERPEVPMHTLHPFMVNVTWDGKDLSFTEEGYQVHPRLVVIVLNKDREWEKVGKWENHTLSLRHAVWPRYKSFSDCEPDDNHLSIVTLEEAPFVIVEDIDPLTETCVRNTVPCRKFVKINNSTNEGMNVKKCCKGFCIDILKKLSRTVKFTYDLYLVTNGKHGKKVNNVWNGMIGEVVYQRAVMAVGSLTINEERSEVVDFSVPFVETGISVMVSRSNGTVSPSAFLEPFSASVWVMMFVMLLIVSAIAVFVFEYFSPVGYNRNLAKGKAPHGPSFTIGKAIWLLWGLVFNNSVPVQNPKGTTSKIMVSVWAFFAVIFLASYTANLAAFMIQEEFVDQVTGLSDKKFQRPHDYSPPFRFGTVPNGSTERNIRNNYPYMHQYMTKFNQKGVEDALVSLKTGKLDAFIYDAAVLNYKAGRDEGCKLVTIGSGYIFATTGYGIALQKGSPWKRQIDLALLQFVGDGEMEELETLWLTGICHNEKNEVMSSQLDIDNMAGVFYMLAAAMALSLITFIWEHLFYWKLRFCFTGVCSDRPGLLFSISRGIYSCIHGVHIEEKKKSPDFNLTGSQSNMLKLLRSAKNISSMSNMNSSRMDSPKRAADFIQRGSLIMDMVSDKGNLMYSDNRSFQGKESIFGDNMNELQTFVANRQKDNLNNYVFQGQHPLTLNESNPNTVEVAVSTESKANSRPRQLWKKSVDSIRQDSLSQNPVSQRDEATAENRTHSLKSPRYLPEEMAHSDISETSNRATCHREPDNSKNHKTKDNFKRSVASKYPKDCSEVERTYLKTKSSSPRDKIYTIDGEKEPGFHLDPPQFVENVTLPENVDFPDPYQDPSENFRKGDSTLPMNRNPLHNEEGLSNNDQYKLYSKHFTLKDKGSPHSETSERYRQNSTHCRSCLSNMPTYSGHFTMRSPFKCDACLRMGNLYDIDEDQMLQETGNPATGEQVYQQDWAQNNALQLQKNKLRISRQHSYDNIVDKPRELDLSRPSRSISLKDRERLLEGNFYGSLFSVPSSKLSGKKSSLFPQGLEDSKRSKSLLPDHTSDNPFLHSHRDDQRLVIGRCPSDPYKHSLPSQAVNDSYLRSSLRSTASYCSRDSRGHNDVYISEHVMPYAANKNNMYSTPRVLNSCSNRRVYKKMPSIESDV
The experiment can be described thus: NMDAR agonist assay, [3H]MK-801 binding, NMDAR2A expressing HEK cell membranes. The format is biochemical. As to conditions: 50 μM glutamate. The procedure: (§1) Assays were conducted as described by Moskal et al., “GLYX-13: a monoclonal antibody-derived peptide that acts as an N-methyl-D-aspartate receptor modulator,” Neuropharmacology, 49, 1077-87, 2005. These studies were designed to determine if the test compounds act to facilitate NMDAR activation in NMDAR2A, NMDAR2B, NMDAR2C or NMDAR2D expressing HEK cell membranes as measured by increases in [3H]MK-801 binding.
In the assay, 300 μg of NMDAR expressing HEK cell membrane extract protein was preincubated for 15 minutes at 25° C. in the presence of saturating concentrations of glutamate (50 μM) and varying concentrations of test compound (1×10^−15M-1×10^−7M), or 1 mM glycine. Following the addition of 0.3 μCi of [3H]MK-801 (22.5 Ci/mmol), reactions were again incubated for 15 minutes at 25° C. (nonequilibrium conditions). Bound and free [3H]MK-801 were separated via rapid filtration using a Brandel apparatus.
In analyzing the data, the DPM (disintegrations per minute) of [3H]MK-801 remaining on the filter were measured for each concentration of test compound or for 1 mM glycine. The DPM values for each concentration of a ligand (N=2) were averaged. The baseline value was determined from the best fit curve of the DPM values modeled using the GraphPad program and the log(agonist) vs. response(three parameters) algorithm was then subtracted from all points in the dataset. The % maximal [3H]MK-801 binding was then calculated relative to that of 1 mM glycine: all baseline subtracted DPM values were divided by the average value for 1 mM glycine. The EC50 and % maximal activity were then obtained from the best fit curve of the % maximal [3H]MK-801 binding data modelled using the GraphPad program and the log(agonist) vs. response(three parameters) algorithm.
The tables below summarize the results for the wild type NMDAR agonists NMDAR2A, NMDAR2B, NMDAR2C, and NMDAR2D, and whether the compound is not an agonist (−), is an agonist (+), or is a strong agonist (++), where column A is based on the % maximal [3H]MK-801 binding relative to 1 mM glycine (−=0; <100%=+; and >100%=++); and column B is based on log EC50 values (0=−; >1×10^−9 M (e.g., −8)=+; and <1×10^−9 M (e.g., −10)++).

The target of another experiment is T2, NMDAR2C (Homo sapiens, UniProt Q14957).
T2 construct: expressed in transfected cells; host or cells: HEK cells (membrane extract)
T2 sequence (Q14957 20-1233, species assumed, other chains not shown): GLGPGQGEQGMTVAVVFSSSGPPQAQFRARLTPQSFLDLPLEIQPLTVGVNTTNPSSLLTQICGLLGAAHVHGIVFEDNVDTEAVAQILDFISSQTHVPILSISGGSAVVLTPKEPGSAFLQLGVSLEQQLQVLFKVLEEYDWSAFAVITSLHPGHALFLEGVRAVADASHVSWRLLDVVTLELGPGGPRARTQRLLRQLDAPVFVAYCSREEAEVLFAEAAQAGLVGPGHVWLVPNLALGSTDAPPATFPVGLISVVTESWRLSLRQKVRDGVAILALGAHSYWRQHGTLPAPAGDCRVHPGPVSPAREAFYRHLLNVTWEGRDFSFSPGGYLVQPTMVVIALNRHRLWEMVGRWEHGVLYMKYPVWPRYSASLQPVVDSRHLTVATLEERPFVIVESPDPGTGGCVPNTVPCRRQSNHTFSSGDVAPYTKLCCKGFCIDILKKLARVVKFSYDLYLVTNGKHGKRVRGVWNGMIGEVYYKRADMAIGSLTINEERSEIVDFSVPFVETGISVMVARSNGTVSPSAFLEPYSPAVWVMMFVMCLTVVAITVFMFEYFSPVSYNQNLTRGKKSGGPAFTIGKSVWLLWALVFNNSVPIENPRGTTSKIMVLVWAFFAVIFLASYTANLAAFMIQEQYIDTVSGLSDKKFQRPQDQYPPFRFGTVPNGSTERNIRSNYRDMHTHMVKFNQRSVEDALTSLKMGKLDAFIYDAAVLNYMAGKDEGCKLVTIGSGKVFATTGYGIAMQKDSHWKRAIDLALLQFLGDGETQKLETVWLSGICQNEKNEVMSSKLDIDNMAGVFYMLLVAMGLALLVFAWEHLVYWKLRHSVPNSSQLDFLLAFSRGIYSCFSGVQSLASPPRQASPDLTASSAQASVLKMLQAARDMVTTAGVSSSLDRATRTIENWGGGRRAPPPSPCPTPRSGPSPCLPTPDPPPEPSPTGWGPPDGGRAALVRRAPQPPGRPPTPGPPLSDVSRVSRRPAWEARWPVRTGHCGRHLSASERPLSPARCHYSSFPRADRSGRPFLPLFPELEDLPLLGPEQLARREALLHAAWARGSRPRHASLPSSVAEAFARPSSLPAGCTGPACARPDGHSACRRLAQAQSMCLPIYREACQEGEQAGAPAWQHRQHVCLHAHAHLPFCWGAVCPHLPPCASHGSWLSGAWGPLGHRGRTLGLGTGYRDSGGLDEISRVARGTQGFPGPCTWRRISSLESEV
The experiment can be described thus: NMDAR agonist assay, [3H]MK-801 binding, NMDAR2C expressing HEK cell membranes. It counts as biochemical. As to conditions: 50 μM glutamate. The procedure: as §1
In the assay, 300 μg of NMDAR expressing HEK cell membrane extract protein was preincubated for 15 minutes at 25° C. in the presence of saturating concentrations of glutamate (50 μM) and varying concentrations of test compound (1×10^−15M-1×10^−7M), or 1 mM glycine. Following the addition of 0.3 μCi of [3H]MK-801 (22.5 Ci/mmol), reactions were again incubated for 15 minutes at 25° C. (nonequilibrium conditions). […]
In analyzing the data, the DPM (disintegrations per minute) of [3H]MK-801 remaining on the filter were measured for each concentration of test compound or for 1 mM glycine. […] The baseline value was determined from the best fit curve of the DPM values modeled using the GraphPad program and the log(agonist) vs. response(three parameters) algorithm was then subtracted from all points in the dataset. The % maximal [3H]MK-801 binding was then calculated relative to that of 1 mM glycine: all baseline subtracted DPM values were divided by the average value for 1 mM glycine. […]

For `CC(C)C(=O)N1CCC2(CCCNC2=O)CC1` [Compound AD, 9-isobutyryl-2,9-diazaspiro[5.5]undecan-1-one], the “% reduction in float time” value in the experiment on Sprague Dawley rats (0.00001 mg/kg, 1 wk post-dose) is given as 1%; in the experiment on Sprague Dawley rats (0.00001 mg/kg, 1 h post-dose) it was 25%; in the experiment on Sprague Dawley rats (0.001 mg/kg, 1 wk post-dose) it was 41%; in the experiment with Sprague Dawley rats (0.001 mg/kg, 1 h post-dose) it was 47%; in the experiment on Sprague Dawley rats (0.1 mg/kg, 1 wk post-dose), 39%; in the experiment on Sprague Dawley rats (0.1 mg/kg, 1 h post-dose), 53%. Also, the “% reduction in float time” value in the experiment with Sprague Dawley rats (10.0 mg/kg, 1 wk post-dose) was determined as 37%; with Sprague Dawley rats (10.0 mg/kg, 1 h post-dose), 39%. Besides, the Significance vs. vehicle result is “No” in the experiment with Sprague Dawley rats (0.00001 mg/kg, 1 wk post-dose); “No” with Sprague Dawley rats (0.00001 mg/kg, 1 h post-dose); “No” in the experiment with Sprague Dawley rats (0.001 mg/kg, 1 wk post-dose); “Yes” with Sprague Dawley rats (0.001 mg/kg, 1 h post-dose); “No” in the experiment on Sprague Dawley rats (0.1 mg/kg, 1 wk post-dose); “Yes” with Sprague Dawley rats (0.1 mg/kg, 1 h post-dose). The Significance vs. vehicle entry is “No” in the experiment on Sprague Dawley rats (10.0 mg/kg, 1 wk post-dose) and “Yes” with Sprague Dawley rats (10.0 mg/kg, 1 h post-dose). In addition, on NMDAR2A, the “NMDAR2A A: % maximal [3H]MK-801 binding relative to 1 mM glycine” value is listed as “+ (<100%=+)”. The EC50 on NMDAR2A (read-out: NMDAR2A B: log EC50 (converted)) and at NMDAR2C (read-out: NMDAR2C B: log EC50 (converted)) was less than 1 nM throughout. Also, at NMDAR2C, the “NMDAR2C A: % maximal [3H]MK-801 binding relative to 1 mM glycine” value is recorded as “+ (<100%=+)”.
